Results from patent publication US8877752B2, “4(1H)-quinolones having antimalarial activity with reduced chemical resistance” (University of South Florida, priority 2011, dated 2014).
Like-named read-outs stand apart in the source and are kept apart here. Each block holds one compound with its values, some of them ahead of it.

Key:
[1] = system: P. falciparum clone W2/Indochina (chloroquine- and pyrimethamine-resistant); assay: in vitro antimalarial activity against W2 (SYBR Green I); type: cell-based; conditions: for less active against W2 in comparison to 17: relative to reference compound 17; for antimalarial activity against W2 (in words): comparison; for EC50: Plasmodium falciparum, P. falciparum W2, 72 hrs incubation
Protocol: (§1) All synthesized quinolones were tested as described in Cross et al., (2010) J. Med. Chem. 53, 7076-7094 and Reid et al., (2011) Bioorg.
(§2) Parasite Culturing: P. falciparum clone W2/Indochina and TM90C2B/Thailand were grown in continuous culture using RPMI 1640 media containing 10% heat-inactivated type A+ human plasma, sodium bicarbonate (2.4 g/L), HEPES (5.94 g/L) and 4% washed human type A+ erythrocytes. Cultures were gassed with a 90% nitrogen, 5% oxygen and 5% carbon dioxide mixture followed by incubation at 37° C.
(§3) Assay Preparation: Test compounds at 5 mg/mL in DMSO were diluted at least 1:400 and then serially diluted in duplicate over 11 concentrations. P. falciparum cultures with greater than 70% ring stage parasites were diluted to 0.5-0.7% parasitemia and 1.5% hematocrit in RPMI 1640 media. In 96-well plates a volume of 90 μl/well of parasitized erythrocytes was added on top of 10 μL/well of the test compound. […] A Beckman Coulter Biomek 3000 was used to dispense test compounds, control drugs and parasitized erythrocytes into the microtiter plates. Positive and negative controls were included in each plate. […] Assay plates were placed into a plastic gassing chamber and equilibrated with 90% nitrogen, 5% oxygen and 5% carbon dioxide mixture then incubated at 37° C. for 72 hrs. The assay plates were then frozen at −80° C. until later processed for parasite growth determinations.
(§4) SYBR Green I Processing: Assay plates were removed from −80° C. storage and allowed to thaw at room temperature. Using the Beckman Biomek 3000, 100 μL was transferred from the assay plates into 96-well black assay plates. Next, 100 μl of SYBR green I (Invitrogen) in 2× lysis buffer (0.2 μl SYBR green I/mL of 2× lysis buffer (0.008% saponin, 0.08% Triton X-100, 20 mM Tris and 5 mM EDTA)) was dispensed into each well of the 96-well black assay plate using the Beckman Coulter Biomek 3000. Upon addition of SYBR green I the microtiter plates were incubated for 1 hrs. in the dark. Relative Fluorescence units (RFU) were read using a Molecular Devices Spectramax microplate reader.
(§5) Data Analysis: Data analysis was performed using a custom database manager (Dataspects, Inc). Nonlinear regression analysis was used to calculate EC50.

[2] = system: P. falciparum TM90-C2B/Thailand (chloroquine-, mefloquine-, pyrimethamine-, and atovaquone-resistant); assay: in vitro antimalarial activity against TM90-C2B (SYBR Green I); type: cell-based; conditions: for more potent against TM90-C2B compared to 27: relative to compound 27; for resistance index RI=EC50(TM90-C2B)/EC50(W2): RI 0.3-3.0 considered acceptable; for EC50: Plasmodium falciparum, read-out: EC50 against TM90-C2B; for less potent against TM90-C2B than against W2: W2 versus TM90-C2B; for antimalarial activity against TM90-C2B (in words): comparison
Protocol: as §1, §2, §3, §4, §5

P. cynomolgi sporozoites = conditions: treated 5 to 7 consecutive days, cited from earlier work
[3] = P. falciparum TM90-C2B, 72 hrs incubation

Structure (SMILES): CCc1c(C)[nH]c2cc(OCCCN3CCN(c4ccccc4)CC3)c(Cl)cc2c1=O [Compound 26, 6-chloro-3-ethyl-2-methyl-7-[3-(4-phenyl-piperazin-1-yl)-propoxy]-1H-quinolin-4-one]
less active against W2 in comparison to 17 [1]: approximately 4 fold

Structure (SMILES): CCc1c(C)[nH]c2cc(OCCOc3ccccc3)c(C)cc2c1=O [Compound 18, 3-ethyl-2,6-dimethyl-7-(2-phenoxy-ethoxy)-1H-quiolin-4-one]
antimalarial activity against W2 (in words) [1]: less active
more potent against TM90-C2B compared to 27 [2]: 3 fold

Structure (SMILES): CCCCc1cc2c(=O)c(-c3ccc(C(F)(F)F)cc3F)c(C)[nH]c2cc1OCCOc1ccccc1 [Compound 41, 6-butyl-3-(2-fluoro-4-(trifluoromethyl)phenyl)-2-methyl-7-(2-phenoxyethoxy)quinolin-4(1H)-one]
resistance index RI=EC50(TM90-C2B)/EC50(W2) [2]: pharmaceutically acceptable

Structure (SMILES): CCCCc1cc2c(=O)c(C(=O)OC)c(C)[nH]c2cc1OCCOc1ccccc1 [Compound 5, Methyl 6-butyl-2-methyl-4-oxo-7-(2-phenoxyethoxy)-1,4-dihydroquinoline-3-carboxylate, reference compound]
EC50 [1]: 0.05 nM
relapse after 120 days of exposure (P. cynomolgi sporozoites; rhesus monkeys inoculated intravenously with sporozoites): no relapse
curative dose (P. cynomolgi sporozoites; rhesus monkeys): 15 mg/kg
EC50 [2, 3]: 11.2 nM
resistance index RI=EC50(TM90-C2B)/EC50(W2) [2]: 223
less potent against TM90-C2B than against W2 [2]: approximately 220

Structure (SMILES): C[C@H]1[C@@H](O)O[C@@H]2O[C@@]3(C)CC[C@H]4[C@H](C)CC[C@@H]1[C@@]24OO3 [DHA, Dihydroartemisinin, reference compound]
EC50 [1]: 1.8 nM
EC50 ([2]; TM90, 72 h): 0.9 nM

Structure (SMILES): CCCCc1cc2c(=O)c(-c3cccnc3)c(C)[nH]c2cc1OCCOc1ccccc1 [Compound 33, 6-butyl-2-methyl-7-(2-phenoxyethoxy)-3-(pyridin-3-yl)quinolin-4(1H)-one]
antimalarial activity against W2 (in words) [1]: moderate activity in low micromolar or high nanomolar range
antimalarial activity against TM90-C2B (in words) [2]: moderate activity in low micromolar or high nanomolar range

EC50 [1]: 0.53 nM
EC50 [2, 3]: > 170 nM
Structure (SMILES): O=C1C(O)=C([C@H]2CC[C@H](c3ccc(Cl)cc3)CC2)C(=O)c2ccccc21 [ATO, atovaquone, reference compound]

Structure (SMILES): CCCCc1cc2c(=O)c(-c3cccc(Oc4ccc(F)cc4)c3)c(C)[nH]c2cc1OCCOc1ccccc1 [Compound 36, 6-butyl-3-(3-(4-fluorophenoxy)phenyl)-2-methyl-7-(2-phenoxyethoxy)quinolin-4(1H)-one]
antimalarial activity against W2 (in words) [1]: inactive
antimalarial activity against TM90-C2B (in words) [2]: inactive

Structure (SMILES): CCc1c(C)[nH]c2cc(OCCOc3ccccc3)c(Cl)cc2c1=O [Compound 17, 6-chloro-3-ethyl-2-methyl-7-(2-phenoxy-ethoxy)-1H-quinolin-4-one]
antimalarial activity against W2 (in words) [1]: slightly reduced activities
antimalarial activity against TM90-C2B (in words) [2]: unaffected or slightly improved

Structure (SMILES): CCc1c(C)[nH]c2cc(OCCOc3ccccc3)c(Br)cc2c1=O [Compound 25, 6-bromo-3-ethyl-2-methyl-7-(2-phenoxy-ethoxy)-1H-quinolin-4-one]
antimalarial activity against W2 (in words) [1]: slightly reduced activities
antimalarial activity against TM90-C2B (in words) [2]: unaffected or slightly improved

EC50 [1]: 104 nM
EC50 [2, 3]: 71.3 nM
Structure (SMILES): CCc1c(C)[nH]c2cc(OCCOc3ccccc3)ccc2c1=O [Compound 27, 3-ethyl-2-methyl-7-(2-phenoxyethoxy)quinolin-4(1H)-one]

Structure (SMILES): CCCCc1cc2c(=O)c(-c3ccncc3)c(C)[nH]c2cc1OCCOc1ccccc1 [Compound 32, 6-butyl-2-methyl-7-(2-phenoxyethoxy)-3-(pyridin-4-yl)quinolin-4(1H)-one]
antimalarial activity against W2 (in words) [1]: moderate activity in low micromolar or high nanomolar range
antimalarial activity against TM90-C2B (in words) [2]: moderate activity in low micromolar or high nanomolar range

melting point: 227 to 230 °C
Structure (SMILES): CCc1c(C)[nH]c2cc(OCCN(C)C)c(Cl)cc2c1=O [Compound 24, 6-chloro-7-(2-dimethylamino-ethoxy)-3-ethyl-2-methyl-1H-quinolin-4-one]

Structure (SMILES): CCc1c(C)[nH]c2cc(OCOC)c(Cl)cc2c1=O [Compound 20, 6-chloro-3-ethyl-7-methoxymethoxy-2-methyl-1H-quinoline-4-one]
less active against W2 in comparison to 17 [1]: approximately 4 fold

Structure (SMILES): CCCCc1cc2c(=O)c(-c3ccc(OC(F)(F)F)cc3)c(C)[nH]c2cc1OCCOc1ccccc1 [Compound 35, 6-butyl-2-methyl-7-(2-phenoxyethoxy)-3-(4-(trifluoromethoxy)phenyl)quinolin-4(1H)-one]
EC50 [1]: 27.9 nM
EC50 [2, 3]: 31 nM
resistance index RI=EC50(TM90-C2B)/EC50(W2) [2]: 1.1

Structure (SMILES): CCCCc1cc2c(=O)c(-c3ccc(COc4ccc(OC(F)(F)F)cc4)cc3)c(C)[nH]c2cc1OCCOc1ccccc1 [Compound 37, 6-butyl-2-methyl-7-(2-phenoxyethoxy)-3-(4-((4-(trifluoromethoxy)phenoxy)methyl)phenyl) quinolin-4(1H)-one]
antimalarial activity against W2 (in words) [1]: inactive
antimalarial activity against TM90-C2B (in words) [2]: inactive

melting point: 270 to 271 °C
Structure (SMILES): CCc1c(C)[nH]c2cc(OCCN3CCOCC3)c(Cl)cc2c1=O [Compound 23, 6-chloro-3-ethyl-2-methyl-7-(2-morpholin-4-yl-ethoxy)-1H-quinolin-4-one]

EC50 [2, 3]: 764 nM
Structure (SMILES): CCCCc1cc2c(=O)c(-c3ccccc3)c(C)[nH]c2cc1OCCOc1ccccc1 [Compound 31, 6-butyl-2-methyl-7-(2-phenoxyethoxy)-3-phenylquinolin-4(1H)-one]

Structure (SMILES): CCCCc1cc2c(=O)c(-c3c(C)noc3C)c(C)[nH]c2cc1OCCOc1ccccc1 [Compound 43, 6-butyl-3-(3,5-dimethylisoxazol-4-yl)-2-methyl-7-(2-phenoxyethoxy)quinolin-4(1H)-one]
EC50 [1]: 27 nM
resistance index RI=EC50(TM90-C2B)/EC50(W2) [2]: pharmaceutically acceptable
less potent against TM90-C2B than against W2 [2]: approximately 5

Structure (SMILES): CCc1c(C)[nH]c2cc(OCCOc3ccccc3)c(OC)cc2c1=O [Compound 19]
antimalarial activity against W2 (in words) [1]: less active
more potent against TM90-C2B compared to 27 [2]: 3 fold

Structure (SMILES): CCCCc1cc2c(=O)c(CC)c(C)[nH]c2cc1OCCOc1ccccc1 [Compound 16, 6-butyl-3-ethyl-2-methyl-7-(2-phenoxyethoxy)quinolin-4(1H)-one]
EC50 [1]: 1.92 nM
EC50 [2, 3]: 0.15 nM
resistance index RI=EC50(TM90-C2B)/EC50(W2) [2]: 0.08
